The values that follow come from the OPERA property sets (Mansouri et al. 2018).

≈ marks a conversion by molar mass, not a printed value.

Details in one series: not given
As a reminder, the solubility is the concentration that dissolves in the medium under given conditions. A high value points to a readily soluble substance. `c1ccc2c(c1)sc1ccccc12` displayed a solubility of 7.98 µM (≈ 1.47 µg/mL).
By logP is commonly meant the decadic logarithm of the partition coefficient of the neutral form, usually between octanol and water. Take `Clc1ccc(Cl)c(NC2=NCCN2)c1Cl`: the lipophilicity (logP) is 2.46.
Same read-out and setting: to `CC(C)Cc1ccc(C(C)(O)C(=O)O)cc1` (stereo not given) belongs 2.75.
As for `COC(=O)Nc1cccc(F)c1`, the logP was 2.21.
On the same count and under the same terms, to `N[C@@H](Cc1ccc(O)c(O)c1)C(=O)OC1CCCCC1` belongs 1.79; to `COC(=O)c1sccc1S(=O)(=O)NC(=O)Nc1nc(C)nc(OC)n1`, 1.56.
On to `COc1ccc2oc(N(N)CCC#N)nc2c1`, for which the logP was determined as 0.98.
The same measure, in the same setting: under `N[C@@H](Cc1ccc(O)c(O)c1)C(=O)OCCOc1ccccc1` stands 1.51.
On the same count and under the same terms, under `O=C1c2ccccc2C(=O)N1SC1CCCCC1` stands 3.66; under `O=C1OC(c2ccc(O)cc2)(c2ccc(O)cc2)c2ccccc21`, 2.89.
`O=[N+]([O-])c1ccc2c(c1)NCC2` returned a logP of 1.92.
Still for that read-out and setting: under `COC1=C(OC)C(=O)C(C)=CC1=O` stands 0.8.
Same read-out and setting: to `CCCCCN(CCCCC)N=O` belongs 3.86; to `CC(=O)Nc1ccc(C(=O)O)c(O)c1`, 1.62.
The compound `Cc1cc(C)nc(NS(=O)(=O)c2ccc(N)cc2)n1` registered a logP of 0.19.
Compound `COc1ccc(C(=O)CCC(=O)O)cc1` had a logP of 1.38.
The compound `COc1ccc(N=C=S)cc1` showed a logP of 3.58.
For `Cc1cc(O)cc(C)c1Cl`, the logP was determined as 3.27.
`Fc1ccc(C2=CCNCC2)cc1` registered a lipophilicity (logP) of 2.37.
`Oc1ncnc2[nH]ncc12` gave a logP of -0.55.
Same read-out and setting: to `CCC(=O)OCC1OC(n2cnc3c(OC)ncnc32)C(OC(=O)CC)C1OC(=O)CC` (stereo not given) belongs 2.75; to `CCCn1ccc(=O)c(O)c1`, -0.17; to `CC1CCC2C(C)C(OC3OC(C(=O)O)C(O)C(O)C3O)OC3OC4(C)CCC1C32OO4` (stereo not given), 1.08.
As to `N=C(N)NN=Cc1ccc([N+](=O)[O-])cc1`, the lipophilicity (logP) came out at 0.87.
The compound `C=C(C)C(N)=O` displayed a log partition coefficient (logP) of -1.11.
Turning to `COc1ccc(C(C)NCCC(c2ccccc2)c2ccccc2)cc1OC` (stereo not given), the logP was found to be 5.8.
Compound `CCc1ccc2cc3ccccc3cc2c1` registered a solubility of 0.13 µM (≈ 0.0268 µg/mL).
In the case of `[N-]=[N+]=CC(=O)OC[C@H](N)C(=O)O`, the lipophilicity (logP) was -2.
Same read-out and setting: to `O=C(O)C1C2CCC(O2)C1C(=O)O` (stereo not given) belongs 1.91; to `CCCCC(C)O` (stereo not given), 1.76.
On the same count and under the same terms, under `CCCC[N+](C)(CCCC)CCCC.[I-]` stands 0.26; under `COCCOCCOC`, -0.36.
On the same count and under the same terms, under `O=[N+]([O-])c1cc(N(CCO)CCO)ccc1NCCO` stands 1.7.
The compound `CCCSc1ccc2[nH]c(NC(=O)OC)nc2c1` came in with a logP of 3.07.
`CCOP(=S)(OCC)Oc1ccc(N)cc1` registered a solubility of 1490 µM (≈ 390 µg/mL).
On to `CCCCN(C)N=O`, for which the logP was determined as 1.08.
Compound `CCCCCCC(C)=O` gave a logP of 2.37.
In the case of `CCCCNC(=O)n1cc(F)c(=O)[nH]c1=O`, the solubility is 3580 µM (≈ 820 µg/mL).
The compound `CC(C)Oc1c(Br)c(Br)n(C)c1C(=O)Nc1nn[nH]n1` registered a lipophilicity (logP) of 2.52.
Still for that read-out and setting: to `CC(=NNC(N)=Nc1ccccc1)c1ccccc1` belongs 2.18; to `Cn1cnc(I)c1[N+](=O)[O-]`, 1.29.
Still for that read-out and setting: to `CCOCCOCCOCC` belongs 0.39; to `CCCCNC(=S)NCCCC`, 2.75.
`CS(=O)(=O)c1cccc2ccccc12` showed a logP of 1.74.
Same read-out and setting: to `OCc1ccccc1Cl` belongs 1.77; to `Nc1ccc(C(=O)NCC(=O)O)cc1`, -0.89.
The same measure, in the same setting: under `C=C(C)C1CCC(C)(O)C1C` (stereo not given) stands 2.87; under `Cc1cn(C2CC(O)C(CN)O2)c(=O)[nH]c1=O` (stereo not given), -2.05; under `COP(=S)(OC)Oc1ccccc1`, 3.03.
For the compound `COc1c(Cl)ccc(Cl)c1Cl`, the logP stood at 3.64.
The compound `Nc1ccc(S(=O)(=O)O)c(N)c1` showed a logP of -4.65.
Compound `COc1nc(C)nc(NC(=O)NS(=O)(=O)c2ccccc2Cl)n1` displayed a logP of 2.
The same measure, in the same setting: to `Cc1cccc(Nc2ccccc2C(=O)O)c1` belongs 4.88; to `CCCCC(=O)OCC1OC(n2cnc3c(OC)ncnc32)C(OC(=O)CCCC)C1O` (stereo not given), 3.58; to `CC(=O)OCN1Cc2ccccc2C1=O`, 0.99.
On the same count and under the same terms, under `CCCCCCCCOC(=O)c1ccccc1C(=O)OCCCCCCCC` stands 8.1; under `CCCCCCCCCCCCN1CC(C(=O)O)CC1=O` (stereo not given), 2.6; under `O=C(Nc1ccccc1)n1cc(F)c(=O)[nH]c1=O`, 1.5.
Still for that read-out and setting: under `Cn1cccc(O)c1=O` stands -0.4.
`CC(C)NCC(O)c1ccc(NS(C)(=O)=O)cc1` (stereo not given) displayed a logP of 0.24.
As to `CCOC(=O)c1ccc(OCC)cc1`, the logP is 3.6.
Compound `C=CC(=O)NCCCN(CCO)CCO` gave a logP of -0.6.
`C[Si]1(C)O[Si](C)(C)O[Si](C)(C)O[Si](C)(C)O1` showed a logP of 6.74.
In turn, `Cl.Cl.O=C1c2c(O)ccc(O)c2C(=O)c2c(NCCNCCO)ccc(NCCNCCO)c21` registered a solubility of 14500 µM.
In turn, `Nc1nc(=O)n([C@@H]2CS[C@H](CO)O2)cc1F` registered a logP of -0.43.
`CN(C)CCCN1c2cc(O)ccc2Sc2ccc(Cl)cc21` showed a logP of 4.63.
Same read-out and setting: under `COCCOC(=O)C1=C(C)NC(C)=C(C(=O)OC(C)C)C1c1cccc([N+](=O)[O-])c1` (stereo not given) stands 3.05; under `O=C(O)CNC(=O)c1ccccc1I`, 0.97; under `CC(=O)OCN1C(=O)C=C(C)C1=O`, 0.45.
In turn, `O=P(O)(O)CN(CCCCCCN(CP(=O)(O)O)CP(=O)(O)O)CP(=O)(O)O` showed a logP of -4.43 and a solubility of 30500 µM (≈ 15000 µg/mL).
`CCCCOCCOCCOCCCC` had a logP of 1.92.
Same read-out and setting: under `O=C(OCCO)c1ccccc1` stands 1.12; under `CC(C)=NNc1ccc([N+](=O)[O-])cc1[N+](=O)[O-]`, 3.05.
The same measure, in the same setting: to `N#CC(C#N)=Cc1ccc(Br)o1` belongs 2.16; to `Cc1ccc2oc(N(N)CCC#N)nc2c1`, 1.48; to `Clc1ccc(Cl)c(-c2ccccc2Cl)c1`, 5.48.
For the compound `Cc1ccc2ccc3ccccc3c2c1`, the logP was found to be 5.15.
The same measure, in the same setting: under `CCCCN=C=S` stands 2.92; under `CC(C)(C)[C@@H](O)[C@H](Cc1ccc(Cl)cc1Cl)n1cncn1`, 3.8.
On the same count and under the same terms, to `Cc1nc(NCc2ccccc2)nc(C(Cl)(Cl)Cl)n1` belongs 3.86.
Still for that read-out and setting: under `CC(Cc1ccc(C(C)(C)C)cc1)CN1C[C@@H](C)O[C@@H](C)C1` (single isomer, unassigned) stands 4.93.
As for `CCCCn1cccc(O)c1=O`, the logP was 1.18.
In turn, `Clc1cc(Cl)c(Oc2ccccc2)cc1Cl` showed a logP of 5.44.
On to `O=C1CCCC1`, for which the log partition coefficient (logP) worked out at 0.38.
`C[Si](C)(C)O[Si](C)(C)O[Si](C)(C)O[Si](C)(C)C`: the log partition coefficient (logP) was 8.21.
Still for that read-out and setting: under `Cc1ccc([N+](=O)[O-])cc1C` stands 2.91.

Staying with this series, now noted: 20 °C.
Turning to `CCOP(=S)(OCC)ON=C(C#N)c1ccccc1Cl`, the solubility stood at 5.11 µM (≈ 1.7 µg/mL).
Same read-out and setting: under `CCC(=O)c1ccccc1` stands 14900 µM (≈ 2000 µg/mL).
Consider `CC(C)COC(=O)C(C)C`, for which the solubility is 5240 µM (≈ 755 µg/mL).
Still for that read-out and setting: under `CCCCOCC1CO1` (stereo not given) stands 154000 µM (≈ 20000 µg/mL).
On the same count and under the same terms, to `Cc1cncc(C)c1` belongs 308000 µM (≈ 33000 µg/mL); to `C/C=C/CCC`, 594 µM (≈ 50 µg/mL); to `CCN(C(=O)n1nnn(-c2ccccc2Cl)c1=O)C1CCCCC1`, 6.58 µM (≈ 2.3 µg/mL).

The same series, now with this note: 22 °C.
The compound `CCOC(=O)CC(SP(=O)(OC)OC)C(=O)OCC` (stereo not given) yielded a solubility of 23900 µM (≈ 7500 µg/mL).

Staying with this series, now noted: 24 °C.
As to `CCCCN(C)N=O`, the solubility came out at 200000 µM (≈ 23200 µg/mL).
Turning to `c1ccc2cc3ccccc3cc2c1`, the solubility was 0.244 µM (≈ 0.0434 µg/mL).

The same series, now with this note: 24.0 °C.
With `c1ccc2c(c1)sc1ccccc12`, the log10 OH rate constant (cm³/molecule/s) is -11.1.
On the same count and under the same terms, under `COc1ccccc1OC` stands -10.5; under `C[Si]1(C)O[Si](C)(C)O[Si](C)(C)O[Si](C)(C)O1`, -12.

Staying with this series, now noted: 25 °C.
In turn, `O=C(O)CC1CCCCC1` yielded a solubility of 20300 µM (≈ 2880 µg/mL).
Same read-out and setting: under `CCCCCC1CCCC1` stands 0.82 µM (≈ 0.115 µg/mL); under `O=c1n(Cl)c(=O)n(Cl)c(=O)n1Cl`, 51600 µM (≈ 12000 µg/mL); under `CCN(CCO)c1ccccc1`, 12100 µM (≈ 2000 µg/mL).
With `CN(C)c1ccc(N=NS(=O)(=O)[O-])cc1.[Na+]`, the solubility was found to be 79600 µM.
Regarding `O=C(O)Cc1ccc(O)cc1`, the solubility was determined as 399000 µM (≈ 60700 µg/mL).
Same read-out and setting: to `O=C1OC(=O)c2ccccc21` belongs 41900 µM (≈ 6200 µg/mL); to `O=[N+]([O-])c1cc(Cl)ccc1Cl`, 72.9 µM (≈ 14 µg/mL).
For `CC(C)c1ccccc1`, the solubility turned out to be 510 µM (≈ 61.3 µg/mL).
Same read-out and setting: to `CCCCCCCCOC(=O)c1ccccc1C(=O)OCCCCCCCC` belongs 0.0563 µM (≈ 0.022 µg/mL); to `c1ccc2nc(-c3ccc4ccccc4n3)ccc2c1`, 3.98 µM (≈ 1.02 µg/mL).
With `Cc1cccc(C)c1N`, the solubility turned out to be 68000 µM (≈ 8240 µg/mL).
Same read-out and setting: under `O=C(O)c1cccc(C(=O)O)c1` stands 602 µM (≈ 100 µg/mL); under `CCC(C)n1c(=O)[nH]c(C)c(Br)c1=O` (stereo not given), 3120 µM (≈ 815 µg/mL); under `Clc1cc(Cl)c(Cl)cc1Cl`, 2.76 µM (≈ 0.595 µg/mL).
As for `Clc1ccc(Cl)c(-c2ccccc2Cl)c1`, the solubility was 1.55 µM (≈ 0.4 µg/mL).
On the same count and under the same terms, under `CCCCCCCCOC(=O)COc1ccc(Cl)cc1Cl` stands 0.0951 µM (≈ 0.0317 µg/mL); under `Oc1ccc(Cl)c(Cl)c1`, 56800 µM (≈ 9260 µg/mL); under `CCC(Cl)CC`, 2340 µM (≈ 249 µg/mL).
In the case of `C[Si](C)(C)O[Si](C)(C)O[Si](C)(C)O[Si](C)(C)C`, the solubility worked out at 0.0217 µM (≈ 0.00674 µg/mL).

The series is the same for the next values; noted with them: 25.0 °C.
The compound `CCNc1nc(Cl)nc(NCC)n1` returned a log10 OH rate constant (cm³/molecule/s) of -11.
For `FC(F)(F)CBr`, the log10 OH rate constant (cm³/molecule/s) is -13.7.
Still for that read-out and setting: to `O=CC(F)Cl` (stereo not given) belongs -11.7; to `O=CF`, -14.4.
The same measure, in the same setting: to `CC(C)Cl` belongs -12; to `FC(F)(F)COCC(F)(F)F`, -12.8.
Still for that read-out and setting: under `c1ccc2cc3ccccc3cc2c1` stands -9.96; under `Cc1ccc(C(C)(C)C)cc1`, -10.9.
As for `ClCCCCl`, the log10 OH rate constant (cm³/molecule/s) is -12.1.
As for `CC(F)(F)CC(F)(F)F`, the log10 OH rate constant (cm³/molecule/s) is -14.1.
As for `c1ccc2[nH]ccc2c1`, the log10 OH rate constant (cm³/molecule/s) was -9.81.
The same measure, in the same setting: under `COCCOC` stands -10.6.
The compound `FC(F)=C(F)OC(F)(F)F` gave a log10 OH rate constant (cm³/molecule/s) of -11.4.
Still for that read-out and setting: to `CC(F)(Cl)Cl` belongs -14.2.

Staying with this series, now noted: pH 7.0.
As a reminder, the logD is lipophilicity at a set pH, counting ionised and neutral species. Higher therefore signals higher lipophilicity. Regarding `Cc1nn(-c2cc(NS(C)(=O)=O)c(Cl)cc2Cl)c(=O)n1C(F)F`, the logD is 0.99.
